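Values below derive from 48-hour exposures of cells grown in 96-well plates, with endpoints linearly interpolated between the two concentrations bracketing the appropriate inhibition level. At the TGI there is no net growth.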
Tests used:
Experiment in all cases: DTP human tumour cell line panel, 48 h
OVCAR-8 ovarian = system: OVCAR-8 ovarian
HL-60(TB) leukemia = system: HL-60(TB) leukemia
NCI/ADR-RES ovarian = system: NCI/ADR-RES ovarian
COLO 205 colon = system: COLO 205 colon
HS 578T breast = system: HS 578T breast
UO-31 renal = system: UO-31 renal
NCI-H226 lung = system: NCI-H226 lung
SK-MEL-5 melanoma = system: SK-MEL-5 melanoma
MALME-3M melanoma = system: MALME-3M melanoma
M14 melanoma = system: M14 melanoma
SNB-75 CNS = system: SNB-75 CNS
SK-OV-3 ovarian = system: SK-OV-3 ovarian
ACHN renal = system: ACHN renal
MOLT-4 leukemia = system: MOLT-4 leukemia
SN12C renal = system: SN12C renal
PC-3 prostate = system: PC-3 prostate
SNB-19 CNS = system: SNB-19 CNS
CAKI-1 renal = system: CAKI-1 renal
HCT-116 colon = system: HCT-116 colon
UACC-62 melanoma = system: UACC-62 melanoma
U251 CNS = system: U251 CNS
SK-MEL-28 melanoma = system: SK-MEL-28 melanoma
DU-145 prostate = system: DU-145 prostate
SF-539 CNS = system: SF-539 CNS
HCT-15 colon = system: HCT-15 colon
OVCAR-3 ovarian = system: OVCAR-3 ovarian
786-0 renal = system: 786-0 renal
BT-549 breast = system: BT-549 breast
MDA-MB-435 = system: MDA-MB-435
RPMI-8226 leukemia = system: RPMI-8226 leukemia
MCF7 breast = system: MCF7 breast
OVCAR-5 ovarian = system: OVCAR-5 ovarian
TK-10 renal = system: TK-10 renal
MDA-MB-231 breast = system: MDA-MB-231 breast
HOP-92 NSCLC = system: HOP-92 NSCLC
A498 renal = system: A498 renal
NCI-H522 lung = system: NCI-H522 lung
CCRF-CEM leukemia = system: CCRF-CEM leukemia
OVCAR-4 ovarian = system: OVCAR-4 ovarian
KM12 colon = system: KM12 colon
HCC-2998 colon = system: HCC-2998 colon
NCI-H23 lung = system: NCI-H23 lung
K-562 leukemia = system: K-562 leukemia
SK-MEL-2 melanoma = system: SK-MEL-2 melanoma
UACC-257 melanoma = system: UACC-257 melanoma
T-47D breast = system: T-47D breast
HT29 colon = system: HT29 colon
LOX IMVI melanoma = system: LOX IMVI melanoma
A549 NSCLC = system: A549 NSCLC
SW-620 colon = system: SW-620 colon
SF-295 CNS = system: SF-295 CNS
NCI-H460 lung = system: NCI-H460 lung
SF-268 CNS = system: SF-268 CNS
EKVX NSCLC = system: EKVX NSCLC
IGROV1 ovarian = system: IGROV1 ovarian

Measured: TGI

O=C1C[C@@H](c2ccc(O)cc2)[C@@]2(O1)C(=O)O[C@H]([C@@H](O)CO)[C@@H]2O
> 100 µM: OVCAR-8 ovarian | HL-60(TB) leukemia | NCI/ADR-RES ovarian | COLO 205 colon | HS 578T breast | UO-31 renal | NCI-H226 lung | SK-MEL-5 melanoma | MALME-3M melanoma | M14 melanoma | SNB-75 CNS | SK-OV-3 ovarian | ACHN renal | MOLT-4 leukemia | SN12C renal | PC-3 prostate | SNB-19 CNS | CAKI-1 renal | HCT-116 colon | UACC-62 melanoma | U251 CNS | SK-MEL-28 melanoma | DU-145 prostate | SF-539 CNS | HCT-15 colon | OVCAR-3 ovarian | 786-0 renal | BT-549 breast | MDA-MB-435 | RPMI-8226 leukemia | MCF7 breast | OVCAR-5 ovarian | TK-10 renal | MDA-MB-231 breast | HOP-92 NSCLC | A498 renal | NCI-H522 lung | CCRF-CEM leukemia | OVCAR-4 ovarian | KM12 colon | HCC-2998 colon | NCI-H23 lung | K-562 leukemia | SK-MEL-2 melanoma | UACC-257 melanoma | T-47D breast | HT29 colon | LOX IMVI melanoma | A549 NSCLC | SW-620 colon | SF-295 CNS | NCI-H460 lung | SF-268 CNS | EKVX NSCLC | IGROV1 ovarian
